Assays:
Assay type in all cases: biochemical
HUMAN LUNG TRYPTASE = assay: In vitro inhibition of human lung tryptase, rate constants by progress curve analysis; settings: nonlinear regression (ENZFITTER)
Method: Using standard in vitro methodology for determining inhibitory activity of tryptase (Journal of Biological Chemistry, Vol. 261, Jun. 5, pp. 7322-7379, 1986), the following results have been obtained:
^a Rate constants were determined by progress curve analysis using a
nonlinear regression program (ENZFITTER)

human plasma [1] = assay: Anticoagulant effect in human plasma, activated partial thromboplastin time (aPTT)
Source text: (§1) Anticoagulant data may be represented as follows:

human plasma [2] = assay: Anticoagulant effect in human plasma, thrombin time (TT)
Source text: as §1

Molecule	Ki (HUMAN LUNG TRYPTASE)	koff (HUMAN LUNG TRYPTASE)	kon (HUMAN LUNG TRYPTASE)	ID2 a PTT (amount required for doubling the clotting time) (human plasma [1])	ID2 TT (amount required for doubling the clotting time) (human plasma [2])
Cl.Cl.N=C(N)NCCCC(NC(=O)[C@@H]1CCCN1C(=O)[C@H]1Cc2ccccc2CN1)C(=O)C(F)(F)C(F)(F)F.O (stereo partly drawn) [D-3-TIC--Pro--Arg--CF2 CF3, L-Prolinamide, N-[2-[3-[(aminoiminomethyl)amino]propyl]-3,3,4,4,4-pentafluoro-2-oxobutyl]-1-D-[(1,2,3,4-tetrahydro-3-isoquinolinyl)carbonyl]-, dihydrochloride, hydrate]	75 nM	0.00034 s⁻¹	4700 ± 200 M⁻¹ s⁻¹		
CC(=O)O.F.N=C(N)NCCCC(NC(=O)[C@@H]1CCCN1C(=O)[C@H](N)Cc1ccccc1)C(=O)C(F)(F)F.O (stereo partly drawn) [D-Phe--Pro--Arg--CF3, L-Prolinamide, N-D-phenylalanyl-N-[1-[3-[(amino]iminomethyl)amino]propyl]-3,3,3-trifluoro-2-oxopropyl]-, hydrofluoride, acetate, hydrate]	500 nM				
CC(=O)O.F.N=C(N)NCCCC(NC(=O)[C@@H]1CCCN1C(=O)[C@H](N)Cc1ccccc1)C(=O)C(F)(F)F.O (stereo partly drawn) [D-Phe--Pro--Arg--CF3]		0.00015 s⁻¹	290 ± 20 M⁻¹ s⁻¹	148 µM	43 µM
L-Prolinamide, N-methyl-D-phenylalanyl-N-[1-[3-[(aminoiminomethyl) amino]propyl]-3,3,3-trifluoro-2-oxopropyl]-, dihydrochloride, hydrate [D-CH3 Phe--Pro--Arg--CF3]	80 nM	1.5e-05 s⁻¹	200 ± 10 M⁻¹ s⁻¹	218 µM	108 µM

— patent US5563156A, “Thrombin inhibitors” (Merrell Pharmaceuticals Inc., priority 1991, dated 1996)
